How the values were obtained:
Schistosoma mansoni = experiment: High throughput screening of compounds against Schistosoma mansoni motility; type: functional; design: dose or concentration left out as unconfirmed
Tryptophan--tRNA ligase = Tryptophan--tRNA ligase (Mycobacterium tuberculosis (strain ATCC 25618 / H37Rv), UniProt P9WFT3); experiment: Biochemical assay for Mt-TrpRS; type: functional
[1] = microbe, parasite or virus in culture; conditions: Mycobacterium tuberculosis, 72 h, read-out: pIC50 (converted)
ClpP1P2 = ClpP1P2 (Mycobacterium tuberculosis (strain ATCC 25618 / H37Rv), UniProt P9WPC3+P9WPC5); experiment: in vitro assay to detect presence of AMC directly proportional to the activity of ClpP1P2. GHDDI collaboration.; type: functional
Sequence of ClpP1P2 (P9WPC5 whole entry): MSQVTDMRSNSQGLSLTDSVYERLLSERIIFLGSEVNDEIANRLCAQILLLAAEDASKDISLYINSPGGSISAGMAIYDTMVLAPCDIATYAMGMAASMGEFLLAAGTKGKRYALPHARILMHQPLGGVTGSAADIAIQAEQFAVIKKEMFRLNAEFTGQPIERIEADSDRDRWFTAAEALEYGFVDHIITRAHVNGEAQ
Sequence of ClpP1P2 (P9WPC3 whole entry): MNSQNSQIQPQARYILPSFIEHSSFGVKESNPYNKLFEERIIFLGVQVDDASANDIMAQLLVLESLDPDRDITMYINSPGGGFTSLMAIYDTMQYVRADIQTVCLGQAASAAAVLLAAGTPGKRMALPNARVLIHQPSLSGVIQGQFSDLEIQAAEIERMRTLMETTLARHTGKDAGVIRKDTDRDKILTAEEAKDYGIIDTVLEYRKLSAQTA

[2] = microbe, parasite or virus in culture; conditions: Mycobacterium tuberculosis, 96 h, read-out: pIC50 (converted)
Plasmodium falciparum = experiment: Calibr Malaria Delayed Death Assay SOP; type: functional, organism-based
[3] = In vitro enzyme assay to detect hydrolysis of chlorophenol red-beta-D-[…] directly proportional to the number of Toxoplasma stably expressing beta-galactosidase; type: functional, organism-based, Toxoplasma gondii; conditions: Toxoplasma gondii

Sequence of Tryptophan--tRNA ligase (P9WFT3 whole entry): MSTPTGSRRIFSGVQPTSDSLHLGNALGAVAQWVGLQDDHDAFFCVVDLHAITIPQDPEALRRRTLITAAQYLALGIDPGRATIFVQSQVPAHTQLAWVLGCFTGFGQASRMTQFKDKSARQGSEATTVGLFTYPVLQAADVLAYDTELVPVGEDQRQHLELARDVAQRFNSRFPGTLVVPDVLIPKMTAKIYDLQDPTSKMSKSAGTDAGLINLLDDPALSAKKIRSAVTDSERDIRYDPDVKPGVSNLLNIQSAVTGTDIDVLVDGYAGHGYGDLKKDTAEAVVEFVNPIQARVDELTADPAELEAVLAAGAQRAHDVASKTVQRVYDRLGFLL

| Structure (SMILES) | IC50 (Tryptophan--tRNA ligase) [µM] | also measured |
| --- | --- | --- |
| CN(Cc1cnn(C)c1)C(=O)NC1CCS(=O)(=O)C1 (stereo not drawn) | > 195 | Percent Effect (Schistosoma mansoni): -4.908% |
| Cn1ccc(-c2cc(C(=O)N3CCC(O)CC3)c3ccccn23)n1 | > 195 | IC50 [1]: > 50.1 µM; IC50 (ClpP1P2): > 100 µM; IC50 [2]: > 50.1 µM |
| Cl.NC(=O)COc1ccc(CNCc2ccc(F)c(F)c2)cc1 | > 195 | Percent Effect (Schistosoma mansoni): 13.17% |
| CCc1cnc(CN(C(C)=O)C2CCN(CCS(C)(=O)=O)C2)o1 (stereo not drawn) | > 195 | Percent Effect (Schistosoma mansoni): -22.31% |
| CO[C@H]1CCN(Cc2ccoc2)C[C@@H]1Cc1ccccc1.O=C(O)C(F)(F)F | > 195 | pIC50 (Plasmodium falciparum): 5.889; IC50 (Plasmodium falciparum; Plasmodium falciparum): 1.2 µM |
| CC(=O)N1CCN(CC2CCOc3ccccc3C2)CC1 (stereo not drawn) | > 195 | Percent Effect (Schistosoma mansoni): -45.54% |
| O=C1CN(Cc2nnc(-c3ccccc3Br)o2)CCN1 | > 195 | Percent Effect (Schistosoma mansoni): 12.25% |
| NC(=O)C1CCN(C(=O)CCn2ccc3cc(Br)ccc32)CC1 | > 195 | Percent Effect (Schistosoma mansoni): -11.99% |
| CO[C@H]1CN(S(=O)(=O)c2ccc(F)cc2)C[C@@]12CCCO2 | > 195 | IC50 (ClpP1P2): > 100 µM |
| O=C(NCCO)Nc1cccc(Cl)c1SC(F)F | > 195 | Percent Effect (Schistosoma mansoni): -20.44% |
| COCCC(=O)N1CCC(C(=O)c2cc(C)cnc2N)CC1 | > 195 | IC50 [1]: > 50.1 µM; IC50 [2]: > 50.1 µM |
| OCCNc1nccc(-c2c[nH]nc2-c2ccco2)n1 | > 195 | IC50 [3]: > 50.1 µM |
| CCN1CC[C@@H]2OC[C@H](C(=O)NCc3cccs3)C[C@@H]2C1 | > 195 | IC50 (ClpP1P2): > 100 µM |
| Cc1cc(NC(=O)NCCc2cccs2)n(C)n1 | > 195 | Percent Effect (Schistosoma mansoni): 9.063% |
| N#Cc1cccc(SCCS(N)(=O)=O)c1 | > 195 | Percent Effect (Schistosoma mansoni): -35.02% |
| COc1cccc(CNCCc2cc(F)cc3c2OCOC3)c1 | > 195 | Percent Effect (Schistosoma mansoni): 75.77% |
| O=C(NCCCO)Nc1cccc(Cl)c1F | > 195 | Percent Effect (Schistosoma mansoni): 24.34% |
| O=C1CN(Cc2nnc(-c3ccc(Br)cc3)o2)CCN1 | > 195 | Percent Effect (Schistosoma mansoni): -48.54% |
| CCc1nnc2n1CCN(C(=O)c1ccc3[nH]cnc3c1)C2 | > 195 | Percent Effect (Schistosoma mansoni): 19.35% |
| COCCNc1nnc(-c2ccc(C)nc2)s1 | > 195 | IC50 [3]: > 50.1 µM |
| Cc1ccc(NC(=O)Cn2cc(I)cn2)cc1 | > 195 | Percent Effect (Schistosoma mansoni): -1.868% |
| O=C1CC2(CCN(CC3CCOC3)CC2)CN1Cc1cc(F)cc(F)c1 (stereo not drawn) | > 195 | Percent Effect (Schistosoma mansoni): -23.28% |
| O=C(CCc1ccsc1)NCC1CCN(c2ccccc2)C1 (stereo not drawn) | > 195 | Percent Effect (Schistosoma mansoni): 6.73% |
| CC(=O)N1CCCC(c2ccc(Cc3ccccc3)cn2)C1 (stereo not drawn) | > 195 | IC50 [1]: 15.3 µM; IC50 [2]: 23.5 µM |

| Structure (SMILES) | IC50 (Tryptophan--tRNA ligase) [µM] | also measured |
| --- | --- | --- |
| NC(=O)CN1CCC2(CC1)CC(=O)c1ccc3ccccc3c1O2 | > 195 | IC50 (ClpP1P2): > 100 µM |
| CN(Cc1cnn(C)c1)C(=O)NC1CCC(O)CC1 (stereo not drawn) | > 195 | Percent Effect (Schistosoma mansoni): 15.72% |
| O=C(c1ccc[nH]1)N1CCN(CC2CCOc3ccccc3C2)CC1 (stereo not drawn) | > 195 | Percent Effect (Schistosoma mansoni): -5.036% |
| COc1ccc2c(c1)C(=O)CC1(CCN(Cc3ccc(F)cc3)CC1)O2 | > 195 | IC50 (ClpP1P2): > 100 µM |
| Cc1cnn(CC(C)NCc2nc(-c3ccco3)no2)c1 (stereo not drawn) | > 195 | Percent Effect (Schistosoma mansoni): -25.07% |
| Cn1ccnc1-c1cccc(NC(=O)NCCCO)c1 | > 195 | Percent Effect (Schistosoma mansoni): -1.514% |
| CC(Cn1cccn1)NC(=O)Nc1ccc(N(C)C)nc1 (stereo not drawn) | > 195 | Percent Effect (Schistosoma mansoni): 0.4135% |
| CN(C)C(=O)c1cccc(CN2CCN(CCO)CC2)c1 | > 195 | IC50 (ClpP1P2): > 100 µM |
| O=C(CCc1cc(O)no1)N1CCCC(COc2ccc(F)cc2)C1 (stereo not drawn) | > 195 | Percent Effect (Schistosoma mansoni): 28.51% |
| Cc1ccc(CC(=O)N2CCOC(c3nc(C)n[nH]3)C2)cn1 (stereo not drawn) | > 195 | Percent Effect (Schistosoma mansoni): 13.87% |
| Cc1ccc(CNC(=O)Nc2cc(C(F)(F)F)c[nH]c2=O)cn1 | > 195 | Percent Effect (Schistosoma mansoni): -4.568% |
| CN(CCCC#N)C1CCCN(Cc2noc(C3CC3)n2)C1 (stereo not drawn) | > 195 | Percent Effect (Schistosoma mansoni): -67.8% |
| Cc1cncc(CN2C[C@@H](O)[C@H](Oc3ccccc3)C2)c1 | > 195 |  |
| O=C(C1CCOC1)N1C[C@@H]2CCN(C(=O)c3cscn3)[C@@H]2C1 (stereo partly drawn) | > 195 |  |
| O=C1CN(C(=O)c2cccc(C(F)(F)F)c2)CC(O)CN1CC1CC1 (stereo not drawn) | > 195 |  |
| O=C(NC[C@H]1CC[C@H](c2nnc(-c3cccnc3)o2)CC1)C1CC1 | > 195 |  |
| O=C(O)Cc1nc2nccc(-c3ccc(F)cc3)n2n1 | > 195 |  |
| Cc1nc(Nc2ncccn2)cc(C2CCCN2C)n1 (stereo not drawn) | > 195 |  |
| NC(=O)C1(CCCc2ccccn2)CCCN(Cc2ccncc2)C1 (stereo not drawn) | > 195 |  |
| Cc1cnccc1-c1cnn(CCNC(=O)c2ccncc2)c1C1CC1 | > 195 |  |
| COCCN1C(=O)CO[C@H]2CN(Cc3ccccc3Cl)C[C@@H]21 | > 195 |  |
| NC(=O)CN1CCOCC(Cc2ccccc2)C1 (stereo not drawn) | > 195 |  |
| Cc1ccc(CNC(=O)c2ccc(CNS(C)(=O)=O)o2)cc1F | > 195 |  |
| Cc1ccc(CNc2nc(O)cc(C3CC(=O)N(C)C3)n2)cc1 (stereo not drawn) | > 195 |  |

| Structure (SMILES) | IC50 (Tryptophan--tRNA ligase) [µM] | also measured |
| --- | --- | --- |
| c1cc(CN2C[C@H](OCC3CCOCC3)[C@H]3COC[C@H]32)co1 | > 195 |  |
| O=C(NCc1ccccn1)c1cncc(C2CCCN2)n1 (stereo not drawn) | > 195 |  |
| CC(NCc1c(C(C)C)nn(C)c1N1CCOCC1)C(=O)N(C)C (stereo not drawn) | > 195 |  |
| CN(C)C(=O)c1cncnc1-c1ccc(CNC(=O)C2CCCO2)cc1 (stereo not drawn) | > 195 |  |
| c1cncc(CN2CCN3C[C@H](Oc4cncnc4)C[C@H]3C2)c1 | > 195 |  |
| Cc1ccc(S(=O)(=O)NCc2[nH]ncc2Br)cc1F | > 195 |  |
| O=C(Cc1cccc(O)c1)N1CCCC(O)(CN2CCOCC2)CC1 (stereo not drawn) | > 195 |  |
| COCCc1ncc(CNC2(c3ccc(Cl)cc3Cl)CC2)cn1 | > 195 |  |
| COCC1CC2(CCN(C(=O)c3cncc(C)c3)CC2)CO1 (stereo not drawn) | > 195 |  |
| O=C(c1ccco1)N1CCC2(CCCN(c3ncccn3)C2)C1 (stereo not drawn) | > 195 |  |
| CCO[C@H]1CC[C@H]2[C@@H]1OCCN2C(=O)COc1ccccc1 | > 195 | IC50 [1]: > 50.1 µM; IC50 [2]: > 50.1 µM |
| N#Cc1ccc(CN2CCCCC2Cn2cccn2)cc1 (stereo not drawn) | > 195 |  |
| Cc1ncsc1C(=O)NC1CCN(CCC#N)CC1 | > 195 |  |
| CN(C)C(=O)NCC1CC2(CO1)CN(c1nncs1)C2 (stereo not drawn) | > 195 |  |
| CCN1Cc2cc(F)ccc2N(CC(O)C(F)(F)F)CCC1=O (stereo not drawn) | > 195 |  |
| CCn1c2c(ccc1=O)CC(NCc1cnn(C)c1)CC2 (stereo not drawn) | > 195 |  |
| COc1c(CNC2CCCN(c3ncccn3)C2)c(C(C)C)nn1C (stereo not drawn) | > 195 |  |
| CC(=O)N1CCO[C@@H]2CN(Cc3cccc(Cl)c3)C[C@@H]2C1 | > 195 |  |
| O=C(CCC1CCCC1)N1CCCC(c2ncc3c(n2)CCNC3)C1 (stereo not drawn) | > 195 |  |
| CC(Cn1cccn1)NC(=O)NCCc1ccsc1 (stereo not drawn) | > 195 |  |
| CCN(CC1CCOC1)C(=O)c1cc(F)ccc1N1CCN(C)CC1 (stereo not drawn) | > 195 |  |
| CN1CCC(Cc2cncc(-c3ccccc3C(=O)O)n2)C1 (stereo not drawn) | > 195 |  |
| CN(C)C(CNCc1nc(-c2ccsc2)no1)c1cccs1 (stereo not drawn) | > 195 |  |
| N#Cc1cccc(CN2CC[C@@H]3CN(c4ncccn4)CCO[C@@H]3C2)c1 | > 195 |  |

| Structure (SMILES) | IC50 (Tryptophan--tRNA ligase) [µM] | also measured |
| --- | --- | --- |
| Cc1cc(N(C)C)nc(C2CCNC2)n1 (stereo not drawn) | > 195 |  |
| Cc1cc(NC(=O)CNC2CCc3nc(C(C)C)nn3C2)no1 (stereo not drawn) | > 195 |  |
| Cc1nc(C2CCCN2C(=O)COc2ccccc2)ncc1C(N)=O (stereo not drawn) | > 195 |  |
| COCC(=O)N1CC(=O)c2sc(Nc3ccc(F)cc3F)nc2C1 | > 195 |  |
| CS(=O)(=O)N1C[C@@H]2CCN(C(=O)c3cscn3)[C@@H]2C1 | > 195 |  |
| CN(Cc1ccc(F)cc1)CC1(O)CCN(C(=O)c2ccsc2)C1 (stereo not drawn) | > 195 |  |
| Cn1cc(C(=O)NCc2cncc3c2CCN(CC2CC2)C3)cn1 | > 195 |  |
| CC1CCCCN1c1nc2c(c(=O)[nH]1)CCN(Cc1ccccc1O)C2 (stereo not drawn) | > 195 |  |
| CC1(C(=O)N2CCOCC2)CN(Cc2ncc[nH]2)CCO1 (stereo not drawn) | > 195 |  |
| Nc1nccnc1C1CN(C(=O)c2ccnnc2)CCO1 (stereo not drawn) | > 195 |  |
| CCO[C@H]1CN(CC2CCOCC2)[C@@H]2CCCO[C@H]12 | > 195 |  |
| O=C(NC1CC1)[C@@H]1C[C@@H]2CCN(Cc3ccoc3)C[C@@H]2O1 | > 195 |  |
| CC1CCN(CCCNC(=O)NC(C)c2nncn2C)CC1 (stereo not drawn) | > 195 |  |
| NC(=O)C1(CCCc2ccccn2)CCCN(CCO)C1 (stereo not drawn) | > 195 |  |
| CS(=O)(=O)NCc1cn2c(n1)CN(Cc1cccnc1)CC2 | > 195 |  |
| COCCN1CC(=O)c2sc(NC(C)C)nc2C1 | > 195 |  |
| O=S(=O)(c1ccccc1)N1C(CN2CCOCC2)[C@]2(O)CC[C@H]1CC2 (stereo partly drawn) | > 195 |  |
| Cc1ccc2c(c1C)OCC2NCc1ccc(C#N)cc1 (stereo not drawn) | > 195 |  |
| Cn1nc(C#N)c2c1CN(C(=O)c1ccco1)CCC2 | > 195 |  |
| Cc1cc(C[C@@H]2COC[C@H]2NCc2ccc(Cl)c(Cl)c2)on1 | > 195 |  |
| COc1cccc(OC)c1CN1CC(O)CN(S(C)(=O)=O)CC1=O (stereo not drawn) | > 195 |  |
| Cc1cccc(CN2CCCC2c2cccc(CCC(=O)O)n2)c1 (stereo not drawn) | > 195 |  |
| CCn1cnnc1C1CCN(C(=O)c2cc(C)c(C)s2)CC1 | > 195 |  |
